In patent US20170101521A1, “THERMAL BASE GENERATOR, THERMOSETTING RESIN COMPOSITION, CURED FILM, CURED FILM MANUFACTURING METHOD, AND SEMICONDUCTOR DEVICE” (FUJIFILM Corporation, priority 2014, published 2017):

Assays:
[1] = Base generation temperature by differential scanning calorimetry; assay type: physicochemical; details: DSC, heated to 250° C. at 5° C./min in pressure-resistant capsule; peak temperature of lowest exothermic peak
Experimental: The base generation temperature may be measured, for example, by heating a compound to 250° C. at a rate of 5° C./minute in a pressure-resistant capsule, reading a peak temperature of an exothermic peak having the lowest temperature, and taking the peak temperature as a base generation temperature, using differential scanning calorimetry.
Using differential scanning calorimetry (Q2000, manufactured by TA), (A) a thermal base generator was heated to 250° C. at 5° C./min in a pressure-resistant capsule. The peak temperature of an exothermic peak having the lowest temperature was read to measure such a peak temperature as a base generation temperature.

[2] = literature value, or calculated with ACD/pKa for compounds not listed; cited from earlier work

| Compound | Base generation temperature [1] | pKa1 of anion [2] |
| --- | --- | --- |
| O=C(O)CN(CC(=O)O)c1ccccc1 [A-1] | 145 °C |  |
| Cc1ccc(N(CC(=O)O)CC(=O)O)cc1 [A-2] | 140 °C |  |
| COc1ccc(N(CC(=O)O)CC(=O)O)cc1 [A-3] | 140 °C |  |
| O=C(O)CN(CC(=O)O)c1ccc(-c2ccccc2)cc1 [A-4] | 150 °C |  |
| O=C(O)CN(CC(=O)O)c1cc(C(F)(F)F)cc(C(F)(F)F)c1 [A-5] | 155 °C |  |
| O=C(O)CN(CC(=O)O)c1ccc(C(F)(F)F)cc1 [A-6] | 155 °C |  |
| CC(=O)c1ccc(N(CC(=O)O)CC(=O)O)cc1 [A-7] | 155 °C |  |
| O=C(O)CN(CC(=O)O)c1ccc(Cc2ccc(N(CC(=O)O)CC(=O)O)cc2)cc1 [A-8] | 145 °C |  |
| CC(C)(c1ccc(N(CC(=O)O)CC(=O)O)cc1)c1ccc(N(CC(=O)O)CC(=O)O)cc1 [A-9] | 140 °C |  |
| Cc1ccc(NC(CC(=O)O)C(=O)O)cc1 (stereo not drawn) [A-10] | 200 °C |  |
| O=C(O)CC(Nc1ccccc1)C(=O)O (stereo not drawn) [A-11] | 200 °C |  |
| C1CCC2=[N+](CC1)CCCN2.O=C([O-])CCC(=O)O [A-12] | 150 °C |  |
| CCN(CC)CC.O=C(O)CCC(=O)O [A-13] | 170 °C |  |
| O=C(O)CN(CC(=O)Nc1ccccc1)c1ccccc1 [A-16] | 130 °C |  |
| C=CCN(CC(=O)O)CC(=O)O [A-17] | 190 °C |  |
| CCCCCCCCCCCC[N+](C)(C)CC(=O)c1ccccc1.O=C([O-])/C=C\C(=O)O [A-18] | 150 °C | 1.9 |
| CCCCCCCCCCCC[N+](C)(C)CC(=O)c1ccccc1.O=C([O-])C(=O)O [A-21] | 150 °C | 1.2 |
| CCCCCCCCCCCC[N+](C)(C)CC(=O)c1ccccc1.O=C([O-])CCC(=O)O [A-22] | 130 °C | 4.2 |
| CCCCCCCCCCCC[N+](C)(C)CC(=O)c1ccc2ccccc2c1.O=C([O-])/C=C\C(=O)O [A-23] | 140 °C | 1.9 |
| O=C(C[n+]1ccccc1)c1ccccc1.O=C([O-])C(=O)O [A-27] | 140 °C | 1.2 |
| O=C(C[N+]1=C2CCCCCN2CCC1)c1ccccc1.O=C([O-])C(=O)O [A-28] | 140 °C | 1.2 |

| Compound | Base generation temperature [1] | pKa1 of anion [2] |
| --- | --- | --- |
| O=C(C[N+]1=C2CCCN2CCC1)c1ccccc1.O=C([O-])C(=O)O [A-29] | 140 °C | 1.2 |
| C[N+]1(CC(=O)c2ccccc2)CCCCC1.O=C([O-])C(=O)O [A-30] | 140 °C | 1.2 |
| O=C(C[N+]12CCN(CC1)CC2)c1ccccc1.O=C([O-])C(=O)O [A-31] | 140 °C | 1.2 |
| C[N+]1(C)CCCCC1.O=C([O-])C(=O)O [A-32] | 190 °C | 1.2 |
| C1CN2CCN1CC2.O=C(O)C(=O)O [A-33] | 70 °C | 1.2 |
| C1CCC2=[N+](CC1)CCCN2.O=C([O-])C(=O)O [A-34] | 80 °C | 1.2 |
| CC[N+](CC)(CC)C(c1ccccc1)c1ccccc1.O=C([O-])C(=O)O [A-36] | 170 °C | 1.2 |
| C[n+]1ccccc1.O=C([O-])C(=O)O [A-37] | 180 °C | 1.2 |
| CCCCCC[N+](C)(C)CC(=O)c1ccccc1.O=C([O-])/C=C\C(=O)O [A-38] | 150 °C | 1.9 |
| CCCCCCCC[N+](C)(C)CC(=O)c1ccccc1.O=C([O-])/C=C\C(=O)O [A-39] | 150 °C | 1.9 |
| C[N+](C)(CC(=O)c1ccccc1)C1CCCCC1.O=C([O-])/C=C\C(=O)O [A-40] | 150 °C | 1.9 |
| C[N+](C)(CC(=O)c1ccccc1)Cc1ccccc1.O=C([O-])/C=C\C(=O)O [A-41] | 150 °C | 1.9 |
| CCCCC(CC)C[N+](C)(C)CC(=O)c1ccccc1.O=C([O-])/C=C\C(=O)O (stereo not drawn) [A-42] | 150 °C | 1.9 |
| CCC(O)C[N+](C)(C)[N-]C(=O)c1ccccc1OC (stereo not drawn) [X-1, reference compound] | 80 °C |  |
| C=C(C)C(=O)OC(CO)N(CC(=O)O)c1ccccc1 (stereo not drawn) [X-4, reference compound] | Higher than 200 °C |  |
| C=Cc1ccc(NCC(=O)O)cc1 [X-5, reference compound] | Higher than 200 °C |  |
| O=C(O)CNc1ccccc1 [X-6, reference compound] | Higher than 200 °C |  |
| CN(CC(=O)O)CC(=O)O [X-7, reference compound] | Higher than 200 °C |  |
| O=C(O)CN(CCN(CC(=O)O)CC(=O)O)CC(=O)O [X-8, reference compound] | Higher than 200 °C |  |
| C1CNC2=[N+](C1)CCCN2.O=C([O-])/C=C\C(=O)O [X-9, reference compound] | Lower than 40 °C |  |
